Experimental data taken from US7119089B2, “Phenothiazine kinesin inhibitors” (Cytokinetics, Inc., priority 2001, dated 2006).

What was measured:
A549 cells = details: data provided by National Cancer Institute; cited from earlier work
[1] = system: Skov-3 cells (human ovarian cancer); assay: FACS analysis of cell cycle stage by DNA content (mitotic arrest); type: cell-based; details: 24 hours treatment, paclitaxel at 10 nM
Protocol: FACS analysis to determine cell cycle stage by measuring DNA content was performed as follows. Skov-3 cells (human ovarian cancer) were split 1:10 for plating in 10 cm dishes and grown to subconfluence with RPMI 1640 medium containing 5% fetal bovine serum (FBS). The cells were then treated with either 10 nM paclitaxel, the test compound or 0.25% DMSO (vehicle for compounds) for 24 hours. Cells were then rinsed off the plates with PBS containing 5 mM EDTA, pelleted, washed once in PBS containing 1% FCS, and then fixed overnight in 85% ethanol at 4° C. Before analysis, the cells were pelleted, washed once, and stained in a solution of 10 μg propidium iodide and 250 μg of ribonuclease (RNAse) A per milliliter at 37° C. for half an hour. Flow cytometry analysis was performed on a Becton-Dickinson FACScan, and data from 10,000 cells per sample was analyzed with Modfit software.

Row | Structure (SMILES) | GI50 (A549 cells) [µM] | shift in the population of cells from G0/G1 cell cycle stage (2n DNA content) to G2/M cell cycle stage (4n DNA content) [1]
1 | O=c1[nH]cc(F)c(=O)[nH]1 [5-fluorouracil] | 1 | 
2 | COc1cccc2c1C(=O)c1c(O)c3c(c(O)c1C2=O)C[C@@](O)(C(=O)CO)C[C@@H]3O[C@H]1C[C@H](N)[C@H](O)[C@H](C)O1 [doxorubicin] | 0.063 | 
3 | NC(=O)NO [hydroxyurea] | 500 | 
4 | CC(=O)O[C@H]1C(=O)[C@@]2(C)[C@H]([C@H](OC(=O)c3ccccc3)[C@]3(O)C[C@H](OC(=O)[C@H](O)[C@@H](NC(=O)c4ccccc4)c4ccccc4)C(C)=C1C3(C)C)[C@]1(OC(C)=O)CO[C@@H]1C[C@@H]2O [paclitaxel] | 0.004 | caused a shift in the population of cells from a G0/G1 cell cycle stage (2n DNA content) to a G2/M cell cycle stage (4n DNA content)
